Patent publication US12023348B2, “EGR1 targeting molecules for the treatment of inflammatory and hyperproliferative conditions” (The Medical Research, Infrastructure and Health Services …, priority 2015, dated 2024)

Experiments:
SAMD9 = SAMD9 RNA expression by qRT-PCR in TERC-transformed fibroblasts; format: cell-based, human; settings: 5 μM, 24 hours, qRT-PCR vs DMSO (FIG. 1C)
Description: TERC-transformed fibroblasts were transformed with a pBABE-H2AGFP construct containing the human telomerase gene were cultured High Glucose DMEM, 10% FCS, L-glutamine and Pen-Strep (all cell culture regents from Biological Industries, Israel). Medium was changed every 2-3 days. Cells were used at passage 2-3.
Of note, when cells were incubated with CaCx and ApDx (NCI, MA USA), they were grown in the appropriate medium with 0.1% FCS only.
RNA was extracted from cell cultures using an RNA extraction kit (Roche Diagnostics, Mahheim, Germany). cDNA was synthesized from 500 ng of total RNA using the Verso cDNA kit (Thermo Fisher Scientific, Waltham, MA, USA). cDNA PCR amplification was carried out using the Fast SYBR Green Master Mix in a StepOnePlus™ Real-Time PCR System (Applied Biosystems, Foster City, CA, USA) with gene-specific intron-crossing oligonucleotide pairs listed in Table 1 (below). For quantification, standard curves were obtained using serially diluted cDNA amplified in the same qRT-PCR run. The melting temperature (Tm) of the amplified products was measured to confirm the specificity of the reaction conditions. […] Each sample was analyzed in triplicate. mRNA expression level for target gene was normalized to GAPDH. The results are based the amount of target, normalized to an endogenous reference (IACTB) and relative to a calibrator, as calculated by 2-ΔΔCT. […]

[1] = tested on: imiquimod-induced psoriasiform dermatitis; assay: Imiquimod-induced psoriasiform dermatitis in mice; format: in vivo; settings: for Overt toxicity / Inflammatory infiltrate / Epidermal thickness / Index of proliferation (Ki67): i.p. five times a week, CaCx 22.5 mg/kg or ApDx 7.5 mg/kg; for Overt toxicity: 5 days; for Inflammatory infiltrate: biopsies after 5 days; for Epidermal thickness / Index of proliferation (Ki67): biopsies after 5 days (FIG. 5A); for EGR1 RNA levels in treated skin: quantitative PCR vs vehicle group (FIG. 5B); for EGR1 RNA levels in treated skin / IL-33 RNA levels in treated skin: CaCx 22.5 mg/kg or ApDx 7.5 mg/kg i.p.; for IL-33 RNA levels in treated skin: quantitative PCR vs vehicle group (FIG. 5C)
Description: Balb/c mice (Harlan Laboratories Ltd, Jerusalem, Israel), 9 weeks of age, were maintained in a pathogen-free animal facility. Animal care and research protocols had been approved by the institutional committee for animal use. Imiquimod 5% (Perrigo, Israel) was used as topical treatment for the mice on their upper backs. Mice were injected i.p. five times a week with DMSO or 7.5-22.5 mg/kg of ApDx and CaCx, respectively (NCI). 10% DMSO in […] was used as a vehicle control.
(§1) Formaldehyde-fixed 5-μm paraffin-embedded sections from skin biopsies were deparaffinized and treated with 3% H2O2 in methanol for 15 minutes at room temperature, warmed in a microwave oven in citrate buffer in a pressure cooker for 25 minutes, and stained with a monoclonal anti-Ki67 antibody (Thermo Scientific) for 1 hour at room temperature. Following 3 washings (10 minutes each) with phosphate-buffered saline (PBS), the antibodies were imaged using the ABC technique (Zymed Laboratories, South San Francisco, CA) and the slides were counterstained with hematoxylin.
(§2) Epidermal thickness was defined as the distance between the granular layer and the basement membrane and was measured at 10 randomly selected locations for each biopsy using NIS-Elements BR 3.2 software (Nikon, NY USA). An image was taken and was manually measured in the software by selecting an upper and lower border, as defined above. The distance was measured in microns.
(§3) RNA was extracted from cell cultures using an RNA extraction kit (Roche Diagnostics, Mahheim, Germany). cDNA was synthesized from 500 ng of total RNA using the Verso cDNA kit (Thermo Fisher Scientific, Waltham, MA, USA). cDNA PCR amplification was carried out using the Fast SYBR Green Master Mix in a StepOnePlus™ Real-Time PCR System (Applied Biosystems, Foster City, CA, USA) with gene-specific intron-crossing oligonucleotide pairs listed in Table 1 (below). For quantification, standard curves were obtained using serially diluted cDNA amplified in the same qRT-PCR run. The melting temperature (Tm) of the amplified products was measured to confirm the specificity of the reaction conditions. Cycling conditions were as follows: 95° C. for 10 minutes, 95° C. for 10 seconds, 62° C. for 15 seconds, and 72° C. for 25 seconds for a total of 40 cycles. Each sample was analyzed in triplicate. mRNA expression level for target gene was normalized to GAPDH. The results are based the amount of target, normalized to an endogenous reference (IACTB) and relative to a calibrator, as calculated by 2-ΔΔCT. All samples were run in triplicate. The expression levels of target genes were expressed as mRNA relative units.
This hypothesis was tested in a murine model in which psoriasiform dermatitis was induced using imiquimod [as previously described in Tortola, L. et al. (2012) J Clin Invest 122, 3965-76].
Balb/c mice were treated topically with imiquimod and were injected five times a week i.p. with either the vehicle, 22.5 mg/kg of CaCx or 7.5 mg/kg of ApDx.
After 5 days, biopsies were obtained from the treated skin and stained for hematoxylin and eosin as well as for Ki67 (FIGS. 4A-F), as a surrogate marker for cellular proliferation.

[2] = tested on: human psoriatic skin graft; assay: Chimeric mice carrying human psoriatic skin; format: in vivo; settings: for Clinical and histological psoriasiform phenotype (average improvement score) / Overt toxicity / Epidermal thickness / Keratinocyte proliferation (Ki67): i.p. five times a week; for Clinical and histological psoriasiform phenotype (average improvement score) / Overt toxicity: 10 days; for Clinical and histological psoriasiform phenotype (average improvement score): ApDx 5 mg/kg (p<0.0001), CaCx 15 mg/kg (p<0.05) (FIG. 6); for Overt toxicity / Epidermal thickness / Keratinocyte proliferation (Ki67): ApDx 5 mg/kg or CaCx 15 mg/kg; for Epidermal thickness / Keratinocyte proliferation (Ki67): biopsies after 10 days (FIGS. 7A-F, 8)
Text: Chimeric mice carrying human psoriatic skin were generated using SCID mice, 2-3 months of age. Animals were maintained in a pathogen-free animal facility. A psoriasis-like phenotype was induced in normal human skin grafted onto the mice by intradermal injection of natural killer/T cells derived from psoriatic patients as previously described [Gilhar A et al. J Invest Dermatol (2011) 131: 118-124].
as §1, §2, §3
To assess the potential therapeutic role of the compounds (ApDx and CaCx) of some embodiments of the invention, the two compounds were administered systemically (i.p) to chimeric mice carrying human psoriatic skin. In short, SCID mice, 2-3 months of age, were maintained in a pathogen-free animal facility. A psoriasis-like phenotype was induced in normal human skin grafted onto the mice by intradermal injection of natural killer/T cells derived from psoriatic patients as previously described [Gilhar A et al. J Invest Dermatol (2011) 131: 118-124]. Two weeks after natural killer/T-cell injection (6 weeks after human skin grafting), mice were injected i.p. five times a week. Four groups of mice were treated as follows: one group of mice was injected five times a week with the vehicle; a second group of mice was injected five times a week ApDx (5 mg/kg); a third group of mice was injected five times a week CaCx (15 mg/kg); and a fourth group of mice, was treated with dexamethasone (DEX) cream applied 5 times a week on the graft, as positive control (DEX was expected to attenuate inflammation in this model). Each group included five mice, and the treatment was performed for a total of 10 days. The grafts were harvested from the four groups of mice, paraffin-embedded, stained for hematoxylin and eosin (H&E), analyzed and scored for the average improvement of the clinical and histological psoriasiform phenotype.

SMILES | SAMD9 expression in TERC-transformed fibroblasts (SAMD9) | Overt toxicity [1] | Inflammatory infiltrate [1] | Epidermal thickness [1] | Index of proliferation (Ki67) [1] | EGR1 RNA levels in treated skin [1] | IL-33 RNA levels in treated skin [1] | Clinical and histological psoriasiform phenotype (average improvement score) [2] | Overt toxicity [2] | Epidermal thickness [2] | Keratinocyte proliferation (Ki67) [2] | EGR1 RNA levels in treated skin ([2]; quantitative PCR vs vehicle group (FIG. 9), CaCx 15 mg/kg i.p.)
Cc1c2ccnc(C(N)=O)c2c(C)c2c1[nH]c1ccccc12.Cl [Compound 335142, 6H-Pyrido[4,3-b]carbazole-1-carboxamide, 5,11-dimethyl-, monohydrochloride] | significantly induce | No overt toxicity | did not affect | decrease | decrease | significant decrease | significant decrease | significant clinical and histological attenuation | No overt toxicity | significant decrease | significant decrease | significant decrease
CCCN1c2ccc(N)cc2S(=O)(=O)c2cc(Cl)cc(Cl)c21 [Compound 629971, 7,9-dichloro-5,5-dioxo-10-propylphenothiazin-3-amine] | significantly induce | No overt toxicity | did not affect | decrease | decrease | significant decrease | significant decrease | significant clinical and histological attenuation | No overt toxicity | significant decrease | significant decrease | –
